Data published in patent US20070160554A1, “Acyl ribonucleosides and acyl deoxyribonucleosides, compositions of, and methods of making same” (COGNIS IP MANAGEMENT GMBH, priority 2003, published 2007).
Where two headings read alike, the source gives them in different places.

Columns and labels:
human fibroblasts [1] = experiment: Non-toxicity on quiescent human fibroblasts (second experiment: DNA, ATP, proteins, GSH/proteins); assay type: cell-based; details: for ATP / DNA / GSH/proteins / Proteins: quiescent fibroblasts, 3 days; for modification of growth, energetic metabolism and protein metabolism of the fibroblasts: human fibroblasts in vitro
Experimental: Uridine palmitate and uridine stearate were added in the culture medium starting from a stock solution at 1% (w/v) in DMSO. After an incubation of 3 days the number of viable cells was determined by evaluation of the levels of cellular DNA (fluorescent probe), ATP, proteins (Bradford's method) and the rate of cellular GSH (GSH is glutathione) normalised to the level of cellular proteins.

human fibroblasts [2] = details: for Proteins (level of cellular proteins) / LD50: 3 days; for LD50: human
Experimental: In a first experiment, human fibroblasts were inoculated in a standard cell culture medium of foetal calf serum (or FCS). After an incubation of 1 day at 37° C. under an atmosphere of air, enriched to a carbon dioxide content of 5%, the growth medium was exchanged for a standard medium with a range of concentrations of uridine, uridine palmitate and uridine stearate.

[3] = test system: Melanocytes (B16 cell line); experiment: Inhibition of melanin synthesis in B16 melanocytes (melanin by optical density at 475 nm, cellular proteins by Bradford); assay type: cell-based, mouse; details: for effect on the rate of released melanin / inhibition of melanin synthesis: B16 melanocytes, at concentrations not toxic to human fibroblasts; for Rate of Melanin / Rate of cellular proteins: B16, 3 days
Text: Melanin is the pigment responsible for the colour of skin and hairs. Melanin synthesis takes place in specific organelles so called melanosomes in human melanocytes located in the basal layer of the human epidermis. This synthesis begins by oxidation of tyrosine to DOPA (dihydroxy-phenyl-alanine) by tyrosinase and then DOPA polymerises to melanin which is stored in melanosomes.
Melanocytes (B16 cell line: B16 is the name of the mouse melanoma cells used in this test.) were inoculated in standard cell culture medium of foetal calf serum (FCS). […] Uridine palmitate and ulidine stearate were added to the culture medium starting from a stock solution at 1% (w/v) in DMSO. After an incubation of 3 days, the number of viable cells was determined by the evaluation of the levels of cellularproteins (Bradford's method) and the level of synthesized melanin was measured by recording the optical density at 475 nm of cell's homogenate. The results are expressed in table 4.

CCCCCCCCCCCCCCCC(=O)O[C@@H]1[C@H](O)[C@@H](CO)O[C@H]1n1ccc(=O)[nH]c1=O [Mono-O-palmitoyl uridine, Mono-O-Palmitoyl Uridine]
ATP (human fibroblasts [1]; dose 0,001 % w/v): 111 %/control | DNA (human fibroblasts [1]; dose 0,001 % w/v): 92 %/control | GSH/proteins (human fibroblasts [1]; dose 0,001 % w/v): 103 %/control | Proteins (human fibroblasts [1]; dose 0,001 % w/v): 98 %/control | ATP (human fibroblasts [1]; dose 0,003 % w/v): 86 %/control | DNA (human fibroblasts [1]; dose 0,003 % w/v): 83 %/control | GSH/proteins (human fibroblasts [1]; dose 0,003 % w/v): 108 %/control | Proteins (human fibroblasts [1]; dose 0,003 % w/v): 91 %/control | modification of growth, energetic metabolism and protein metabolism of the fibroblasts (human fibroblasts [1]): not modified the growth of the fibroblasts | toxic effects on growing human fibroblasts cultured in vitro (human fibroblasts [2]): not shown any toxic effects | Proteins (level of cellular proteins) (human fibroblasts [2]; dose 0.003 % w/v): 92 %/control | Proteins (level of cellular proteins) (human fibroblasts [2]; dose 0.01 % w/v): 97 %/control | LD50 (human fibroblasts [2]): >0.01% w/v | effect on the rate of released melanin / inhibition of melanin synthesis [3]: strongly decreased the rate of released melanin | Rate of Melanin ([3]; dose 0.001 % w/v): 98 % against control | Rate of cellular proteins ([3]; dose 0.001 % w/v): 100 % against control | Rate of Melanin ([3]; dose 0.003 % w/v): 69 % against control | Rate of cellular proteins ([3]; dose 0.003 % w/v): 95 % against control | Rate of Melanin ([3]; dose 0.01 % w/v): 44 % against control | Rate of cellular proteins ([3]; dose 0.01 % w/v): 110 % against control

CCCCCCCCCCCCCCCCCC(=O)O[C@@H]1[C@H](O)[C@@H](CO)O[C@H]1n1ccc(=O)[nH]c1=O [Mono-O-stearoyl uridine, Mono-O-Stearoyl Uridine]
ATP (human fibroblasts [1]; dose 0,0015 % w/v): 91 %/control | DNA (human fibroblasts [1]; dose 0,0015 % w/v): 94 %/control | GSH/proteins (human fibroblasts [1]; dose 0,0015 % w/v): 98 %/control | Proteins (human fibroblasts [1]; dose 0,0015 % w/v): 96 %/control | ATP (human fibroblasts [1]; dose 0,005 % w/v): 92 %/control | DNA (human fibroblasts [1]; dose 0,005 % w/v): 100 %/control | GSH/proteins (human fibroblasts [1]; dose 0,005 % w/v): 135 %/control | Proteins (human fibroblasts [1]; dose 0,005 % w/v): 95 %/control | modification of growth, energetic metabolism and protein metabolism of the fibroblasts (human fibroblasts [1]): not modified the growth of the fibroblasts | toxic effects on growing human fibroblasts cultured in vitro (human fibroblasts [2]): not shown any toxic effects | Proteins (level of cellular proteins) (human fibroblasts [2]; dose 0.0005 % w/v): 90 %/control | Proteins (level of cellular proteins) (human fibroblasts [2]; dose 0.0015 % w/v): 87 %/control | LD50 (human fibroblasts [2]): >0.01% w/v | effect on the rate of released melanin / inhibition of melanin synthesis [3]: strongly decreased the rate of released melanin | Rate of Melanin ([3]; dose 0.001 % w/v): 84 % against control | Rate of cellular proteins ([3]; dose 0.001 % w/v): 98 % against control | Rate of Melanin ([3]; dose 0.003 % w/v): 65 % against control | Rate of cellular proteins ([3]; dose 0.003 % w/v): 92 % against control | Rate of Melanin ([3]; dose 0.01 % w/v): 19 % against control | Rate of cellular proteins ([3]; dose 0.01 % w/v): 99 % against control

CCCC(=O)OC[C@H]1O[C@@H](n2ccc(=O)[nH]c2=O)[C@H](OC(=O)CCC)[C@@H]1OC(=O)CCC [Tri-O-Butyryl-Uridine, reference compound]
effect on the rate of released melanin / inhibition of melanin synthesis [3]: no or only a very poor effect | Rate of Melanin ([3]; dose 0.001 % w/v): 106 % against control | Rate of cellular proteins ([3]; dose 0.001 % w/v): 100 % against control | Rate of Melanin ([3]; dose 0.003 % w/v): 106 % against control | Rate of cellular proteins ([3]; dose 0.003 % w/v): 106 % against control | Rate of Melanin ([3]; dose 0.01 % w/v): 105 % against control | Rate of cellular proteins ([3]; dose 0.01 % w/v): 103 % against control

O=c1ccn([C@@H]2O[C@H](CO)[C@@H](O)[C@H]2O)c(=O)[nH]1 [Uridine, uridine, reference compound]
ATP (human fibroblasts [1]; dose 0,01 % w/v): 100 %/control | DNA (human fibroblasts [1]; dose 0,01 % w/v): 103 %/control | GSH/proteins (human fibroblasts [1]; dose 0,01 % w/v): 107 %/control | Proteins (human fibroblasts [1]; dose 0,01 % w/v): 100 %/control | ATP (human fibroblasts [1]; dose 0,03 % w/v): 89 %/control | DNA (human fibroblasts [1]; dose 0,03 % w/v): 94 %/control | GSH/proteins (human fibroblasts [1]; dose 0,03 % w/v): 102 %/control | Proteins (human fibroblasts [1]; dose 0,03 % w/v): 104 %/control | Proteins (level of cellular proteins) (human fibroblasts [2]; dose 0.03 % w/v): 104 %/control | Proteins (level of cellular proteins) (human fibroblasts [2]; dose 0.1 % w/v): 99 %/control | effect on the rate of released melanin / inhibition of melanin synthesis [3]: no or only a very poor effect | Rate of Melanin ([3]; dose 0.03 % w/v): 92 % against control | Rate of cellular proteins ([3]; dose 0.03 % w/v): 94 % against control | Rate of Melanin ([3]; dose 0.1 % w/v): 92 % against control | Rate of cellular proteins ([3]; dose 0.1 % w/v): 97 % against control
